Values quoted from earlier work in article PMC2787808 (Peptides, 2009).

Columns and labels:
[1] = test system: G17-Gly binding sites on DLD-1 cells; conditions: previous study; ref [11]
HT-29 cells = conditions: ref [2]

Substance: pGlu-Gly-Pro-Trp-Leu-(Glu)5-Ala-Tyr [G17(1–12)]
- Binding sites and affinity on DLD-1 cells [1]: binds to two sites
- Stimulation of proliferation of HT-29 cells (HT-29 cells): stimulates nonbiphasic proliferation
